Experimental data taken from US20100179221A1, “FLUORINE-SUBSTITUTED AMPHETAMINES AND AMPHETAMINE DERIVATIVES AND USE THEREOF” (Universitat Tubingen, priority 2007, published 2010).

How the values were obtained:
[1] = test system: L-DOPA-induced dyskinesias; experiment: L-DOPA-induced dyskinesia (AIM) in 6-hydroxydopamine hemiparkinsonian rats; assay type: in vivo
Method: (§1) Next, rats (Sprague-Dawley rats; Charles-River, Sulzfeld, Germany) were established as the animal model. The rats were kept in constant, reproducible conditions. Sprague-Dawley rats weighing about 220 to 300 g were used in the experiment. The rats were kept in groups. A light cycle of 12:12 hours was maintained (light switched on from 07:00 to 19:00 hours). For two weeks before the experiments, all the rats were kept in the same room. Water was made available ad libitum, standard animal feed was supplied once daily in an amount of 12 g per animal. All experiments were carried out between 09:00 and 17:00 hours and complied with international ethical standards and the German animal protection law. It was approved by the Animal Protection Commission, Tübingen Administrative Board, ZP 5/01.
24 rats were put in deep narcosis. One hemisphere of the rats was treated in each case with the neurotoxin 6-hydroxydopamine, which destroyed dopaminergic neurons in this hemisphere. […] Then the animals were treated intraperitoneally with an antiparkinsonian drug twice daily for 25 days. This comprised L-DOPA-methyl ester in an amount of 10 mg per kg of body weight with benserazide in an amount of 7.5 mg per kg of body weight (Sigma, Deisenhofen, Germany). Under this treatment the rats developed dyskinesias of the contralateral forepaws.
Control Group: • Continuing this treatment, 12 of the 24 rats were treated additionally with PBS.
Test Group: • The other twelve rats were treated additionally with a fluorinated amphetamine derivative 1-(3,4-difluorophenyl)-2-(N-ethylamino)propane (Formula III).
The results for the treatment are illustrated in FIG. 2. The dyskinesia was quantified (AIM=abnormal involuntary movements) in the control group on five successive days. […] For comparison, the dyskinesia quantification of the test group, i.e., the animals additionally treated with 1-(3,4-difluorophenyl)-2-(N-ethylamino)propane (Formula (III), fMDE, 5 mg/kg), was observed. The measurements were in each case recorded 60 minutes after the animals were treated. […]

[2] = test system: Haloperidol-induced catalepsy; experiment: Haloperidol-induced catalepsy test (descent test), model for parkinsonism; assay type: in vivo, Sprague-Dawley rats; conditions: for descent latency: rats after haloperidol 0.5 mg/kg, compound 5 mg/kg, FIG. 1, vehicle control about 130 seconds
Method: as §1
Haloperidol-induced catalepsy is used here as a model for parkinsonism. Haloperidol is a dopamine receptor-blocking drug. The catalepsy induced in this way comprises akinesia and rigor. The haloperidol model can be treated with all known clinically effective antiparkinsonism drugs, as described above.
Dopamine hypofunction and the consequent parkinsonian symptoms were generated as follows.
Control Group: • Haloperidol (Haldol, Janssen®, Germany) was diluted with phosphate buffered saline (PBS; Sigma, Deisenhofen, Germany) to a concentration of 0.5 mg per ml. Twelve rats were each given an intraperitoneal (i.p.) injection of this solution with an absolute amount of haloperidol of 0.5 mg per kilogram of body weight and an injection with PBS.
Test Group: • Another twelve rats were treated identically, but instead of the PBS injection were given a fluorine-substituted amphetamine derivative 1-(3,4-difluorophenyl)-2-(N-ethylamino)propane (Formula III) dissolved in PBS.
The results of the descent tests are illustrated in FIG. 1. […] The descent latency of rats treated with MDMA (5 mg/kg) was much less, at about 30 seconds, but for the rats treated with 1-(3,4-difluorophenyl)-2-(N-ethylamino)propane (fMDE, Formula (III), 5 mg/kg) it was even lower.

SMILES	onset of the antidyskinetic effect ([1]; 5 mg/kg, administration on successive days)	number of AIMs (abnormal involuntary movements) per 4 min versus vehicle control ([1]; 5 mg/kg, recorded 60 minutes after treatment, five successive days, FIG. 2)	expression of the dyskinesias, test group versus control group ([1]; in addition to L-DOPA-methyl ester 10 mg/kg + benserazide 7.5 mg/kg)	akinesia and rigor in the catalepsy test, test group versus control group ([2]; haloperidol 0.5 mg/kg i.p., compound dissolved in PBS, versus haloperidol + PBS)	descent latency [2]
CCNC(C)Cc1ccc(F)c(F)c1 (stereo not drawn) [Formula III, 1-(3,4-difluorophenyl)-2-(N-ethylamino)propane]	already seen on the first day	almost halved	significantly reduced	significantly less pronounced	even lower
CNC(C)Cc1ccc2c(c1)OCO2 (stereo not drawn) [MDMA, 3,4-methylene dioxymethamphetamine, reference compound]	–	–	–	–	about 30 seconds
